Data taken from patent publication US20050148034A1, “Methods for identification of modulators of angiogenesis, compounds discovered thereby, and methods of treatment using the compounds” (priority 2002, published 2005).

Assays:
[1] = tested on: embryonic-like stem cells derived from placenta; assay: Immunostaining for CD34, CD45 and CD105 in cultured placental stem cells (ratios to TNC, Table 3); format: cell-based, human; settings: for CD34/TNC / CD45/TNC / CD105/TNC: placental conditioned media, 14 days in culture
Protocol: The cells were scored for the expression of CD34 (a marker of early hematopoietic progenitor cells; also an endothelial cell marker), CD45 (a marker of all hematopoietic cells except erythrocytes), CD105 (a marker of proliferating endothelial cells), smooth muscle cell (SMC)-specific myosin heavy chain, nestin ([…]), and glial fibrillary acidic protein (GFAP). Ratios of CD34 cells/TNC (Total Number of Cells), CD45 cells/TNC and CD105 cells/TNC were also determined.
In another experiment, the results of which are summarized in Table 3, embryonic-like stem cells derived from placenta were cultured, using the conditions described in the umbilical vessel ring assay described above, in the presence of placenta-conditioned medium with DMSO (negative control), Thalomid™, Actimid™ or Revimid™. After 14 days in culture, the cells were then immunostained for expression of CD34+, CD45+ and CD 105+.

[2] = tested on: embryonic-like stem cells derived from placenta; assay: Total vessel area/field and branching/bifurcation of cultured placental embryonic-like stem cells (Table 4); format: cell-based, human; parameters: key to Branching/Bifurcation (+/−): +: a branch or bifurcation was observed; −: no branch or bifurcation was observed
Protocol: In another experiment, the results of which are summarized in Table 4, embryonic-like stem cells derived from placenta were cultured, using the culture conditions described above, and in the presence of EGCF, DMSO, Thalomid™, Actimid™ or Revimid™.
A “+” means that a branch or bifurcation was observed and a “−” means that no branch or bifurcation was observed. […] See also FIGS. 3A, 3B

Question: For `O=C1CCC(N2C(=O)c3ccccc3C2=O)C(=O)N1` (stereo not shown) [Thalomid, thalidomide, reference compound], which CD34/TNC ([1]; 10 μg/ml) is on record?
Answer: 0.64

Question: And the CD45/TNC ([1]; 10 μg/ml)?
Answer: 3.87

Question: What about the CD105/TNC ([1]; 10 μg/ml) of the same molecule?
Answer: 6.8

Question: And the CD34/TNC ([1]; 100 μg/ml)?
Answer: 0.38

Question: And the CD45/TNC ([1]; 100 μg/ml)?
Answer: 4.21

Question: What about the CD105/TNC ([1]; 100 μg/ml) of the same molecule?
Answer: 7.0

Question: What about the “numbers of cells expressing CD34, CD45 and CD 105” value ([1]; summary of Table 3) of the same molecule?
Answer: decrease

Question: What about the “Branching/Bifurcation (+/−)” value ([2]; 1 μg/ml) of the same molecule?
Answer: −

Question: And the “Total Vessel Area/Field (% Coverage)” value ([2]; 1 μg/ml)?
Answer: 24.1 +/− 4.4 % Coverage

Question: What about the “Branching/Bifurcation (+/−)” value ([2]; 10 μg/ml) of the same molecule?
Answer: −

Question: What about the “Total Vessel Area/Field (% Coverage)” value ([2]; 10 μg/ml) of the same molecule?
Answer: 14.8 +/− 7.2 % Coverage

Question: What about the “branching and/or bifurcation exhibited by the cells” value ([2]; summary of Table 4) of the same molecule?
Answer: decreases the branching and/or bifurcation exhibited by the cells

Question: And the “total vessel area/field covered by the cells” value ([2]; summary of Table 4)?
Answer: decrease in the total vessel area/field covered by the cells
